Reference: patent US20260315476A1, “COMBINATION TREATMENT METHODS FOR CANCER WITH TP53 MUTATION” (HO'OLA THERAPEUTICS INC., priority 2022, published 2026)
Read-outs that look alike come from different tables or passages of the source.

What was measured:
[1] = Patient disposition and overall tolerability; assay type: in vivo, human; conditions: CLL Part 3
Protocol: (§1) In Phase 1 study (Part 1), patients with relapsed/refractory (R/R) mantle cell lymphoma (MCL) and R/R chronic lymphocytic leukemia/small lymphocytic lymphoma (CLL/SLL) were enrolled (CLL n=18, MCL n=12). 2, 4, 8, and 16 mg/kg and 300 mg and 600 mg doses of zilovertamab (formerly known as cirmtuzumab) were evaluated. Ibrutinib was added to the treatment after 1 month at dose of 420 mg for CLL, 560 mg for MCL. The recommended dosing regime was 600 mg of zilovertamab (i.v.) once every 2 weeks by three times and then once every 4 weeks in combination with ibrutinib at approved doses per indication (i.e., 420 mg for CLL, 560 mg for MCL).
(§2) In Phase 2 study, patients were divided into two study groups. In study group 1 (Part 2), patients with R/R CLL, R/R MCL, and marginal zone lymphoma (MZL) were enrolled (CLL n=16, MCL n=21). The patients were treated with the recommended dosing regimen from Phase 1 study, that is, zilovertamab (600 mg) and ibrutinib at approved dose (420 mg CLL, 560 mg MCL and MZL). In study group 2 (Part 3), patients with R/R CLL (n=31) were enrolled and randomly treated with either zilovertamab in combination with ibrutinib or ibrutinib alone.

[2] = tested on: mantle cell lymphoma (MCL); conditions: MCL Rule 2017, Relapsed/Refractory, N = 370; cited from earlier work
[3] = tested on: mantle cell lymphoma (MCL); conditions: historical, cited from earlier work
[4] = tested on: mantle cell lymphoma (MCL); assay: Overall survival in MCL; assay type: in vivo, human; conditions: MCL patients
Protocol: as §1, §2

[5] = tested on: chronic lymphocytic leukemia (CLL); conditions: Byrd 2019, cited from earlier work
[6] = tested on: chronic lymphocytic leukemia (CLL); assay: Overall survival in CLL; assay type: in vivo, human; conditions: CLL patients
Protocol: as §1, §2

[7] = tested on: mantle cell lymphoma (MCL); conditions: historical, cited from earlier work; remark: listed apart in the source
[8] = MCL patients treated with BTKi (e.g., ibrutinib) alone; cited from earlier work
[9] = tested on: chronic lymphocytic leukemia (CLL); assay: Clinical response rates in CLL (Phase 1/2 study, Parts 1 & 2 and Part 3); assay type: in vivo, human
Protocol: as §1, §2

[10] = tested on: chronic lymphocytic leukemia (CLL); assay: as above; assay type: in vivo, human; conditions: Part 3, TN
[11] = Treatment emergent adverse events, CLL Part 3; assay type: in vivo, human
Protocol: as §2

[12] = Rule 2019, No p53 mutation, N = 124
[13] = Rule 2019, p53 mutation, N = 20

## C=CC(=O)N1CCC[C@@H](n2nc(-c3ccc(Oc4ccccc4)cc3)c3c(N)ncnc32)C1 [ibrutinib, 1-[(3R)-3[4-Amino-3-(4-phenoxyphenyl)-1H-pyrazolo[3,4-d]pyrimidin-1-yl]piperidin-1-yl]prop-2-en-1-one]
[1]
  Study discontinuation: Death: 0 n
[2]
  median OS: 25.0
[3]; Rule 2019, No p53 Mutation
  M PFS (95% CI): 12.0 (7.1, 15.6)
[3]; Rule 2019, p53 Mutation
  M PFS (95% CI): 4.0 (2.1, 8.3)
[4]
  median OS: not reached
[5]; 24 months, 1 or 2 prior systemic therapies
  Landmark PFS: ~82%
[5]; 24 months, >2 prior systemic therapies
  Landmark PFS: ~65%
[5]; 36 months, 1 or 2 prior systemic therapies
  Landmark PFS: ~73%
[5]; 36 months, >2 prior systemic therapies
  Landmark PFS: ~50%
[6]
  median OS: not reached
[7]; Rule 2017, N = 370
  CR: 74 (20.0) n (%)
  ORR: 234 (63.2) n (%)
  PD: 86 (23.2) n (%)
[7]; [12]
  CR: 31 (25.0) n (%)
  ORR: 87 (70.2) n (%)
  PR: 56 (45.2) n (%)
[7]; [13]
  CR: 0 n (%)
  ORR: 11 (55.0) n (%)
  PR: 11 (55.0) n (%)
[8]
  Grade 3 or 4 neutrophil decrease: 29%
[9]; CLL Part 3
  Complete Response (CR): 1 (14.3) n (%)
  Median Duration of response (95% CI): NR (8.3, NE)
  Overall Response Rate (ORR): 7 (100.0) n (%)
  Partial Response (PR): 6 (85.7) n (%)
[9]; Part 3, 1 Prior
  CR: 0 n
  PD: 0 n
[9]; Part 3, Overall
  PD: 0 n
[9]; Part 3, ≥3 Prior
  CR: 0 n
  Median DoR: 8.3 months
  PD: 0 n
[10]
  CR: 0 n
  PD: 0 n
[11]
  Atrial Fibrillation, Grades 1-2: 1 (10.0) n (%)
  Atrial Fibrillation, Grades ≥3: 1 (10.0) n (%)
  Atrial Fibrillation, Overall: 2 (20.0) n (%)
  Back pain, Grades 1-2: 2 (20.0) n (%)
  Back pain, Grades ≥3: 0 n (%)
  Back pain, Overall: 2 (20.0) n (%)
  Constipation, Grades 1-2: 3 (30.0) n (%)
  Constipation, Grades ≥3: 0 n (%)
  Constipation, Overall: 3 (30.0) n (%)
  Contusion, Grades 1-2: 3 (30.0) n (%)
  Contusion, Grades ≥3: 0 n (%)
  Contusion, Overall: 3 (30.0) n (%)
  Coronavirus Infection, Grades 1-2: 1 (10.0) n (%)
  Coronavirus Infection, Grades ≥3: 1 (10.0) n (%)
  Coronavirus Infection, Overall: 2 (20.0) n (%)
  Diarrhea, Grades 1-2: 4 (40.0) n (%)
  Diarrhea, Grades ≥3: 0 n (%)
  Diarrhea, Overall: 4 (40.0) n (%)
  Dizziness, Grades 1-2: 3 (30.0) n (%)
  Dizziness, Grades ≥3: 0 n (%)
  Dizziness, Overall: 3 (30.0) n (%)
  Fall, Grades 1-2: 2 (20.0) n (%)
  Fall, Grades ≥3: 0 n (%)
  Fall, Overall: 2 (20.0) n (%)
  Fatigue, Grades 1-2: 2 (20.0) n (%)
  Fatigue, Grades ≥3: 0 n (%)
  Fatigue, Overall: 2 (20.0) n (%)
  Headache, Grades 1-2: 3 (30.0) n (%)
  Headache, Grades ≥3: 1 (10.0) n (%)
  Headache, Overall: 4 (40.0) n (%)
  Hematuria, Grades 1-2: 3 (30.0) n (%)
  Hematuria, Grades ≥3: 0 n (%)
  Hematuria, Overall: 3 (30.0) n (%)
  Hemoglobin decrease, Grades 1-2: 6 (60.0) n (%)
  Hemoglobin decrease, Grades ≥3: 1 (10.0) n (%)
  Hemoglobin decrease, Overall: 7 (70.0) n (%)
  Hypertension, Grades 1-2: 1 (10.0) n (%)
  Hypertension, Grades ≥3: 1 (10.0) n (%)
  Hypertension, Overall: 2 (20.0) n (%)
  Muscle spasms, Grades 1-2: 2 (20.0) n (%)
  Muscle spasms, Grades ≥3: 0 n (%)
  Muscle spasms, Overall: 2 (20.0) n (%)
  Nausea, Grades 1-2: 3 (30.0) n (%)
  Nausea, Grades ≥3: 0 n (%)
  Nausea, Overall: 3 (30.0) n (%)
  Neutrophils decrease, Grades 1-2: 1 (10.0) n (%)
  Neutrophils decrease, Grades ≥3: 2 (20.0) n (%)
  Neutrophils decrease, Overall: 3 (30.0) n (%)
  Platelets decrease, Grades 1-2: 7 (70.0) n (%)
  Platelets decrease, Grades ≥3: 1 (10.0) n (%)
  Platelets decrease, Overall: 8 (80.0) n (%)
  Pneumonia, Grades 1-2: 0 n (%)
  Pneumonia, Grades ≥3: 2 (20.0) n (%)
  Pneumonia, Overall: 2 (20.0) n (%)
  Pruritis, Grades 1-2: 2 (20.0) n (%)
  Pruritis, Grades ≥3: 0 n (%)
  Pruritis, Overall: 2 (20.0) n (%)
  Upper respiratory tract infection, Grades 1-2: 3 (30.0) n (%)
  Upper respiratory tract infection, Grades ≥3: 0 n (%)
  Upper respiratory tract infection, Overall: 3 (30.0) n (%)
